Test results reported in US20080207522A1, “Antimicrobial Peptides” (priority 2004, published 2008).

Experiments:
[1] = tested on: Pseudomonas aeruginosa strain H1001; test: Assay for the cleaved (free, soluble) peptides from cellulose support, luminescence killing assay; type: cell-based; design: key: 1: Peptides showing stronger killing than Bac2A at a 4 to 8-fold higher dilution; Peptides showing stronger killing compared to that of Bac2A at a 4-fold higher dilution; 3: Peptides similar to Bac2A; 4: Peptides similar to Bac2A at the highest concentration but demonstrating weaker killing at a 2-fold dilution; 5: Peptides giving very weak or no killing at a 2-fold dilution; 6: Peptides with weak killing activity at the highest concentration; conditions: free (cleaved) peptides, killing relative to Bac2A
Experimental: Assay for the cleaved peptides from cellulose support. The peptides were cleaved from the dried membrane in an ammonia atmosphere overnight, resulting in free peptides with an amidated C-terminus. The free peptides contained two β-alanines at the C-terminus, in addition to being amidated due to the linker between the cellulose membrane and the peptide sequence. The peptide spots were punched out and transferred in a 96-well microtiter plate. Serial dilutions were carried out from the membrane spots. Four rows were filled with four controls including two with Bac2A and two with of an unrelated peptide. The other eight rows were used for serial dilution steps of the peptide variants. An overnight culture of Pseudomonas aeruginosa strain H1001 was diluted 1:500 using either LB media or 100 mM Tris buffer pH 7.3, 20 mM glucose and was added to the wells (100 μl/well) containing the peptide spots. In all other wells 50 μl were added. The microtiter plate was incubated for 30 min at 37° C. to release the peptides from the membrane. Subsequently, a dilution series were performed and the plate was incubated at 37° C. The luminescence produced by the ATP dependent luciferase system were detected in a time dependent manner using a Tecan Spectra Fluor plus.
(§1) Strains. For the killing assay a mini-Tn5-lux mutant in Pseudomonas aeruginosa H103 was used. The strain is called H1001 and contains a fliC::luxCDABE transcriptional fusion resulting in constitutive expression of luciferase. The bacterial strains used for the antimicrobial activity assays included Escherichia coli UB1005 (F-, nalA37, metB1), a wild-type Salmonella enterica ssp. Typhimurium (S. Typhimurium), wild-type Pseudomonas aeruginosa PAO1 strain H103, Enterococcus faecalis ATCC29212, Staphylococcus aureus ATCC25923, and a clinical isolate of Staphylococcus epidermidis obtained from Dr. D. Speert (Department of Medicine, University of British Columbia). Antifungal activity was tested using a lab isolate of Candida albicans obtained from Dr. B. Dill (Department of Microbiology and Immunology, University of British Columbia).
Peptide synthesis on cellulose is a very effective and inexpensive way to investigate many different peptide variants for one particular activity. However, one of the problems of this technique is the low peptide density synthesized on the membrane, about 280 nmol per cm2. An average peptide spot used for the experiments presented is about 0.3 cm2. Therefore, an assay had to be developed that was sensitive enough to show activity with this amount of peptides. P. aeruginosa H1001 has a reporter system (e.g., a luciferase gene cassette) incorporated into the bacterial chromosome in the fliC gene (involved in flagellar biosynthesis) that is constitutively expressed. It will thus produce light if ATP is present. When this strain is killed, e.g. by peptides, the amount of light produced will decrease due to a decrease in ATP levels in the killed cells. This action can thus be monitored by detecting luminescence in a microtiter plate luminescence reader over time. The volume and amount of cells per well were optimized for this assay. After screening, the killing action was monitored with small amounts of the parent peptide Bac2A (2 μg/ml of free peptide).
Forty-nine scrambled peptides (Bac002-Bac050) were synthesized on the cellulose support and then cleaved by ammonia gas resulting in free peptides with an amidated C-terminus including the linker. The peptide spots were transferred to a 96-well microtiter plate and incubated for 30 min to dissociate the peptides from the cellulose. After serial dilution and addition of strain H1001, luminescence was recorded in a time dependent manner (FIG. 1). All 50 scrambled peptides were compared to Bac2A ([…]-NH2; SEQ ID NO: 1) by this assay (see Table 2). […] Further since all scrambled peptides had some activity, a sequence-specific interaction of the peptides with a receptor or target could be excluded.

[2] = tested on: Pseudomonas aeruginosa strain H1001 fliC::luxCDABE; test: Luminescence-based assay for the non-cleaved (bound) peptides on cellulose membranes; type: cell-based; conditions: for Luminescence at the given time in minutes: 0 / Luminescence at the given time in minutes: 20 / Luminescence at the given time in minutes: 40 / Luminescence at the given time in minutes: 60 / Luminescence at the given time in minutes: 80 / Luminescence at the given time in minutes: 100 / Luminescence at the given time in minutes: 120 / Luminescence at the given time in minutes: 180 / Luminescence at the given time in minutes: 240: cellulose-bound peptide; for Luminescence at the given time in minutes: 0: 0 min; for Luminescence at the given time in minutes: 20: 20 min; for Luminescence at the given time in minutes: 40: 40 min; for Luminescence at the given time in minutes: 60: 60 min; for Luminescence at the given time in minutes: 80: 80 min; for Luminescence at the given time in minutes: 100: 100 min; for Luminescence at the given time in minutes: 120: 120 min; for Luminescence at the given time in minutes: 180: 180 min; for Luminescence at the given time in minutes: 240: 240 min; for Activity Class bound: uncleaved cellulose-bound peptides
Experimental: Luminescence-based MIC assay for the non-cleaved peptides on cellulose membranes. The peptide spots were punched out and transferred to a 96 well microtiter plate with a clear polystyrene bottom and opaque white polypropylene sides (PerkinElmer, Boston, USA). The spots were washed two times with 100% ethanol for 5 min and afterwards equilibrated five times with 100 mM Tris buffer pH 7.3 for 5 min. An overnight culture of Pseudomonas aeruginosa strain H1001 fliC::luxCDABE was diluted 1:50 in new MH medium and incubated at 37° C. to an OD600 of 0.35. This bacterial culture was diluted 1:25 into 10 mM Tris-HCl buffer, pH 7.3 containing 20 mM glucose. Fifty μl of this culture was added to all wells of the microtiter plate and incubated at 37° C. The luminescence of the strain produced by the ATP-dependent luciferase system was detected in a time dependent manner using a Tecan Spectra Fluor plus (Tecan, Austria). At the end of the experiment, the membranes were cleaned by washing the spots two times with 100% ethanol for five minutes. After removing the ethanol the membrane was air-dried.
as §1
The same set of peptides, as well as the reversed sequence of Bac2A-R ([…]; SEQ ID NO: 2166), were synthesized on cellulose and left uncleaved. The production of light was initially compared in wells containing spots of Bac2A, Bac2A-R (with the reversed sequence of Bac2A), the unrelated negative-control peptide, or, as additional controls, only cellulose, or only bacteria (FIG. 2).
As a control, the negative control (unrelated) peptide Bac429 and parent peptide Bac2A (=Bac001) were used in several different wells of the microtiter plate. Luminescence (relative light units; RLU) was measured at 14 different time points, 9 of which are shown. To permit comparison of the data with the free peptide data set, the result for each peptide was classified into six different groups, like the data set with the free peptides (Table 2). […] For the soluble peptides the following classes were established: […]

Sequence	Activity Class Soluble [1]	Luminescence at the given time in minutes: 0 [2] [RLU]	Luminescence at the given time in minutes: 20 [2] [RLU]	Luminescence at the given time in minutes: 40 [2] [RLU]	Luminescence at the given time in minutes: 60 [2] [RLU]	Luminescence at the given time in minutes: 80 [2] [RLU]	Luminescence at the given time in minutes: 100 [2] [RLU]	Luminescence at the given time in minutes: 120 [2] [RLU]	Luminescence at the given time in minutes: 180 [2] [RLU]	Luminescence at the given time in minutes: 240 [2] [RLU]	Activity Class bound [2]
VARIVVRLIRAR [Bac013]	3	3890	6850	3930	1584	494	193	111	100	66	3 (Peptides similar to Bac2A resulting in lux values of less than 500 after 240 min.)
IVRVAVALRRIR [Bac005]	3	3853	6844	5163	4287	3443	2254	1891	1665	1791	5 (Peptides reducing luminescence (lux) values to between 1500 to 3000 after 240 min.)
AVRVRRRAILVI [Bac011]	4	4516	7019	5176	3694	2076	1222	816	494	447	3 (Peptides similar to Bac2A resulting in lux values of less than 500 after 240 min.)
RIVLRRAAVIRV [Bac039]	5	4727	7074	5814	5262	4994	4717	4569	4524	5392	6 (Peptides having residual luminescence (lux) values greater than 3000 after 240 min.)
RVLIAARVIRRV [Bac047]	3	4733	6747	5100	4770	4031	3383	3012	2829	2615	5 (Peptides reducing luminescence (lux) values to between 1500 to 3000 after 240 min.)
IRARIAVRRVVL [Bac004]	3	3773	6547	5008	4405	3805	3125	2753	2459	2607	5 (Peptides reducing luminescence (lux) values to between 1500 to 3000 after 240 min.)
VLARVVARRIRI [Bac040]	5	4220	6241	4269	3951	3368	2880	2761	2300	2415	5 (Peptides reducing luminescence (lux) values to between 1500 to 3000 after 240 min.)
RLRVAIVAIVRR [Bac041]	4	4620	5674	615	54	68	37	77	53	37	2 (Peptides reducing lux values to between 500 and 1000 after 40 min.)
RVLRVVRAAIRI [Bac035]	5	5199	6461	4989	4389	4001	3439	3162	2456	2577	5 (Peptides reducing luminescence (lux) values to between 1500 to 3000 after 240 min.)
AVRAIRVLRVIR [Bac015]	3	4309	7112	5227	3783	2656	1785	1398	1244	1320	4 (Peptides reducing luminescence (lux) values to between 500 to 1499 after 240 min.)
